How the values were obtained:
[1] = system: patients afflicted with papulopustular rosacea; assay: IGA success (2-grade improvement to clear or almost clear), 12-week double-blind vehicle-controlled study of E-BPO cream; format: in vivo, human; details: four weeks
Experimental: (§1) Description: A multi-center, double-blind, randomized, vehicle-controlled, dose-range study of encapsulated 5% benzoyl peroxide (E-BPO) Cream and vehicle cream was performed to assess the efficacy and safety of E-BPO compared to vehicle. Study duration was 12 weeks and included approximately 350 male and female patients afflicted with papulopustular rosacea. Patients were at least 18 years of age, and met the inclusion/exclusion criteria described herein.
(§2) Dosing: Patients were randomized in a 2:1 ratio to the study product or vehicle treatment group, respectively. […]
(§3) Patients were admitted into the study after meeting all inclusion/exclusion criteria, including a clinical diagnosis of rosacea and after written informed consent has been obtained. […] At each visit, a 5-point IGA scale of rosacea; rosacea erythema, and telangiectasia; and inflammatory (papules, pustules) lesion counts were performed and recorded.
(§4) Evaluation of efficacy: The first application of the test product was applied at the investigational site at the end of the Baseline visit (Day 0) under the supervision and instruction of the designated investigational site staff. […] The evaluator also assessed local application site irritation (dryness, scaling, pruritus, stinging and burning) at Baseline and Weeks 2, 4, 8 and 12 (end of study). […]

rosacea = details: BPO as the sole active agent; cited from earlier work
[2] = system: inflammatory lesions (papules, pustules) of patients with papulopustular rosacea; assay: Inflammatory lesion count change from baseline, 12-week vehicle-controlled study of E-BPO cream; format: in vivo, human
Experimental: as §1, §2, §3, §4

O=C(OOC(=O)c1ccccc1)c1ccccc1 [BPO, Benzoyl peroxide]
success in IGA relative to the effect observed after treatment with SOOLANTRA [1]: more than twice | response of lesions (rosacea): unresponsive | decrease in inflammatory lesions relative to the effect observed after treatment with vehicle cream ([2]; after at least 12 weeks of treatment): more than 1.5 x | decrease in inflammatory lesions ([2]; after only 2 weeks of treatment, on average): about 40%
